Measurements as given in ChEMBL document CHEMBL5620346, “Current scenario of pyrazole hybrids with in vivo therapeutic potential against cancers” (Eur J Med Chem, 2023).
pIC50: −log10 of the molar value.

Key:
[1] = target: Receptor-type tyrosine-protein kinase FLT3 (Homo sapiens, UniProt P36888, D835H); test: Inhibition of FLT3 D835H mutant (unknown origin)
[2] = target: Cyclin-dependent kinase 4 (Homo sapiens, UniProt P11802); test: Inhibition of CDK4 (unknown origin)
[3] = tested on: MV4-11; test: Antitumor activity against human MV4-11 cells xenografted in mouse assessed as tumor growth inhibition at 200 mg/kg, po relative to control; type: functional; details: read-out: TGI
[4] = tested on: MCF7; test: Cytotoxicity against human MCF7 cells assessed as reduction in cell viability incubated for 48 hrs by MTT assay; type: functional, cell-based; details: MCF7, 48 h
[5] = tested on: K562; test: Cytotoxicity against human K562 cells assessed as reduction in cell viability incubated for 48 hrs by MTT assay; type: functional, cell-based; details: K562, 48 h
[6] = tested on: HT-29; test: Cytotoxicity against human HT-29 cells assessed as reduction in cell viability incubated for 48 hrs by MTT assay; type: functional, cell-based; details: HT-29, 48 h
[7] = tested on: HT-29; test: Antitumor activity against human HT-29 cells xenografted in BALB/c mouse assessed as reduction in tumor growth at 25 mg/kg, ip relative to control; type: functional; parameters: scale not given: the % may be the effect or the level left
[8] = tested on: HepG2; test: Cytotoxicity against human HepG2 cells assessed as reduction in cell viability incubated for 72 hrs by MTT assay; type: functional, cell-based; details: HepG2, 72 h
[9] = tested on: MCF7; test: Cytotoxicity against human MCF7 cells assessed as reduction in cell viability incubated for 72 hrs by MTT assay; type: functional, cell-based; details: MCF7, 72 h
[10] = tested on: HeLa; test: Cytotoxicity against human HeLa cells assessed as reduction in cell viability incubated for 72 hrs by MTT assay; type: functional, cell-based
[11] = tested on: T47D; test: Antitumor activity against human T47D cells xenografted in nude BALB/c mouse assessed as tumor growth inhibition at 20 mg/kg administered via oral gavage for 20 days relative to control; type: functional; details: 480 h, time 20 day, read-out: TGI
[12] = tested on: T47D; test: Antitumor activity against human T47D cells xenografted in nude BALB/c mouse assessed as tumor growth inhibition at 40 mg/kg administered via oral gavage for 20 days relative to control; type: functional; details: 480 h, time 20 day, read-out: TGI
[13] = tested on: HCT-116; test: Antiproliferative activity against human HCT-116 cells assessed as reduction in cell growth incubated for 72 hrs by SRB assay; type: functional, cell-based; details: HCT-116, 72 h
[14] = tested on: HepG2; test: Antiproliferative activity against human HepG2 cells assessed as reduction in cell growth incubated for 72 hrs by SRB assay; type: functional, cell-based; details: HepG2, 72 h
[15] = tested on: NCI-H1975; test: Antiproliferative activity against human NCI-H1975 cells assessed as reduction in cell growth incubated for 72 hrs by SRB assay; type: functional, cell-based; details: NCI-H1975, 72 h
[16] = Antiproliferative activity against human 95-D cells assessed as reduction in cell growth incubated for 72 hrs by SRB assay; type: functional, cell-based
[17] = tested on: PANC-1; test: Antiproliferative activity against human PANC-1 cells assessed as reduction in cell growth incubated for 72 hrs by SRB assay; type: functional, cell-based; details: PANC-1, 72 h
[18] = tested on: MDA-MB-231; test: Antiproliferative activity against human MDA-MB-231 cells assessed as reduction in cell growth incubated for 72 hrs by SRB assay; type: functional, cell-based; details: MDA-MB-231, 72 h
[19] = tested on: Bel-7402; test: Antiproliferative activity against human Bel-7402 cells assessed as reduction in cell growth incubated for 72 hrs by SRB assay; type: functional, cell-based; details: Bel-7402, 72 h
[20] = tested on: NCI-H1299; test: Antiproliferative activity against human NCI-H1299 cells assessed as reduction in cell growth incubated for 72 hrs by SRB assay; type: functional, cell-based; details: NCI-H1299, 72 h
[21] = tested on: SK-OV-3; test: Antiproliferative activity against human SK-OV-3 cells assessed as reduction in cell growth incubated for 72 hrs by SRB assay; type: functional, cell-based; details: SK-OV-3, 72 h
[22] = tested on: K562; test: Antiproliferative activity against human K562 cells assessed as reduction in cell growth incubated for 72 hrs by SRB assay; type: functional, cell-based; details: K562, 72 h
[23] = tested on: U-87 MG; test: Antiproliferative activity against human U87 cells assessed as reduction in cell growth incubated for 72 hrs by SRB assay; type: functional, cell-based, U-87MG ATCC
[24] = Cytotoxicity against human NCM460 cells assessed as reduction in cell viability incubated for 48 hrs by MTT assay; type: toxicity, cell-based
[25] = Antiproliferative activity against HUVEC cells assessed as cell growth inhibition measured after 72 hrs by crystal violet staining based analysis; type: toxicity; details: human
[26] = tested on: HCT-116; test: Antitumor activity against human HCT-116 cells xenografted in BALB/c nude mouse assessed as tumor growth inhibition at 25 mg/kg, po administered once a daily for 13 consecutive days relative to control; type: functional; details: read-out: TGI
[27] = tested on: HCT-116; test: Antitumor activity against human HCT-116 cells xenografted in BALB/c nude mouse assessed as tumor growth inhibition at 50 mg/kg, po administered once a daily for 13 consecutive days relative to control; type: functional; details: read-out: TGI
[28] = tested on: H22; test: Antitumor activity against mouse H22 cells implanted in Kunming mouse assessed as reduction in tumor growth at 10 mg/kg, iv relative to control; type: functional; details: read-out: TGI
[29] = tested on: H22; test: Antitumor activity against mouse H22 cells implanted in Kunming mouse assessed as reduction in tumor growth at 20 mg/kg, iv relative to control; type: functional; details: read-out: TGI
[30] = target: Ubiquitin carboxyl-terminal hydrolase 8 (Homo sapiens, UniProt P40818); test: Inhibition of human USP8 expressed in Escherichia coli using K63-linked di-ubiquitin (ENZO BML-UW0730-0050) as substrate preincubated for 15 mins followed by substrate addition and measured after 20 mins by fluorescence based analysis
Chain of Ubiquitin carboxyl-terminal hydrolase 8 (P40818 whole entry): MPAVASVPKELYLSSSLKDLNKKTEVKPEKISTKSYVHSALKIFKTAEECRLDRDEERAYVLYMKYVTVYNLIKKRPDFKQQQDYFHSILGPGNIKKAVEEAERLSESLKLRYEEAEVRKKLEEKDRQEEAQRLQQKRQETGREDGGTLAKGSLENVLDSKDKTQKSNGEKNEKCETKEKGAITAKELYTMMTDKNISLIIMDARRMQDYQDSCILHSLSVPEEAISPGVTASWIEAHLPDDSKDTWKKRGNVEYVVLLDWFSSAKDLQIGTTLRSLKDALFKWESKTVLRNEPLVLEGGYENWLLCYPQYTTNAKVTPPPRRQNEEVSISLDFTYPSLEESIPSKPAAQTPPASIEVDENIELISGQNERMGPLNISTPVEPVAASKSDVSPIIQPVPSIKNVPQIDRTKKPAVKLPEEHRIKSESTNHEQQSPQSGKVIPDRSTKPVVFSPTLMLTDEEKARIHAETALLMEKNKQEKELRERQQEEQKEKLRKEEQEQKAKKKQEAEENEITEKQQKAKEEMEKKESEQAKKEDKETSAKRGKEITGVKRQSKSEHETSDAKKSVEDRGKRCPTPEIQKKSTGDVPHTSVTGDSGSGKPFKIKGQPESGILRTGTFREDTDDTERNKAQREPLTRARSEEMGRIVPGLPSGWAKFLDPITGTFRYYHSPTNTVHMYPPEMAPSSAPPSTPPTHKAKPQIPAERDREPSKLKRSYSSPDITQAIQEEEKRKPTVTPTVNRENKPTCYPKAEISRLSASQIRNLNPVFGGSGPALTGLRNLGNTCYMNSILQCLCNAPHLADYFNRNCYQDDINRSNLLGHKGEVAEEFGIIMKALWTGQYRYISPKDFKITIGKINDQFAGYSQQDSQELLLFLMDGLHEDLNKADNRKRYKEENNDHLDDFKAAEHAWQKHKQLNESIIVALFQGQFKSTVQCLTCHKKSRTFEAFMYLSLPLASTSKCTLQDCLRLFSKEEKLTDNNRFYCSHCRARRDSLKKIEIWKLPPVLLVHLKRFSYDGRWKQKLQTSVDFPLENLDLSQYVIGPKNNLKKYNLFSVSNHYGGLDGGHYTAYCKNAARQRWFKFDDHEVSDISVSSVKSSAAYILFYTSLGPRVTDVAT

[31] = tested on: MDA-MB-435; test: Antitumor activity against human MDA-MB-435 cells xenografted in Sprague-Dawley rat model assessed as reduction in tumor volume at 50 mg/kg, ip relative to control; type: functional; parameters: scale not given: the % may be the effect or the level left
[32] = Oral bioavailability in rat; details: in vivo
[33] = Oral bioavailability in dog; details: in vivo
[34] = Cytotoxicity against human HuT 102 cells assessed as reduction in cell growth incubated for 72 hrs by MTT assay; type: functional, cell-based; details: HuT-102, 72 h
[35] = Cytotoxicity against human OATL4 cells assessed as cell growth inhibition incubated for 72 hrs by MTT assay; type: functional, cell-based; details: OATL4, 72 h
[36] = Cytotoxicity against human KOB cells assessed as cell growth inhibition incubated for 72 hrs by MTT assay; type: functional, cell-based
[37] = target: Heat shock protein HSP 90-alpha (Homo sapiens, UniProt P07900); test: Inhibition of human recombinant HSP90alpha expressed in Escherichia coli BL21 (DE3) incubated for 12 hrs by
[38] = target: Heat shock protein HSP 90-beta (Homo sapiens, UniProt P08238); test: Inhibition of human recombinant HSP90beta expressed in Escherichia coli BL21 (DE3) incubated for 12 hrs
Chain of Heat shock protein HSP 90-beta (P08238 whole entry): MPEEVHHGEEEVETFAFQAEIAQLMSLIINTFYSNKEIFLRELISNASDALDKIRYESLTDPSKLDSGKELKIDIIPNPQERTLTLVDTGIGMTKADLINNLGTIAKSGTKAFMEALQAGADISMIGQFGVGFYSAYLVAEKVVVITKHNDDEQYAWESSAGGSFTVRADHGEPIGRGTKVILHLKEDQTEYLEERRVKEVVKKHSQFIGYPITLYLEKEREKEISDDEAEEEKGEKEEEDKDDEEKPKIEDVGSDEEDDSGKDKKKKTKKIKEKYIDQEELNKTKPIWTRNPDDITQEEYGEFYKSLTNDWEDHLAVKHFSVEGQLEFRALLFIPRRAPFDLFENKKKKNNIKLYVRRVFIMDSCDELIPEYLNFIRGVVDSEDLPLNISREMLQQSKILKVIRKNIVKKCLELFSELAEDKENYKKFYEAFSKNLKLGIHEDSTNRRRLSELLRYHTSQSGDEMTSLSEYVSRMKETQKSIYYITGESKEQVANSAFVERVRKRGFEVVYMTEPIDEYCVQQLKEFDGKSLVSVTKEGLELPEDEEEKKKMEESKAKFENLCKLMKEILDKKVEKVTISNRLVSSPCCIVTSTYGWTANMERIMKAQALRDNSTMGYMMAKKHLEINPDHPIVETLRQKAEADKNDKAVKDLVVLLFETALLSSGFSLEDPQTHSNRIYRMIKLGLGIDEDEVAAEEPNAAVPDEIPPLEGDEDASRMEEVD

[39] = Antitumor activity against human HuT 102 cells xenografted in mouse assessed as reduction in tumor growth at 14 mg/kg, po relative to control; type: functional; details: read-out: TGI

Chain of Cyclin-dependent kinase 4 (P11802 whole entry): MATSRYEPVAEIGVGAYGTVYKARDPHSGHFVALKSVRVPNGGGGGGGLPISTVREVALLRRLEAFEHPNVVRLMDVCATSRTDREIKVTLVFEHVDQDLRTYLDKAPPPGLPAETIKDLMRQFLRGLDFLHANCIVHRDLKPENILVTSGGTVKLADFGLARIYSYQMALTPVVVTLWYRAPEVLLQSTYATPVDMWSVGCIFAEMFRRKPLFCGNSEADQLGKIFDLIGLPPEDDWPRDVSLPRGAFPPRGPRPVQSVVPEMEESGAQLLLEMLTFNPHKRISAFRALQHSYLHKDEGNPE

Work on `CCN1CCN(c2ccc(Nc3ncc(F)c(-c4cnc5cnn(C(C)C)c5c4)n3)cc2OC)CC1` yielded a pIC50 [1] of 7.96, a pIC50 [2] of 8.15 and an inhibition in vivo at 200 mg/kg [3] of 67%.

In the case of `O=C1NC(=O)/C(=C/c2ccc3cc(OCC(=O)N4N=C(c5ccc(F)cc5)CC4c4ccccc4Cl)ccc3c2)S1` (stereo not given), the pIC50 [4] was 5.09, the pIC50 [5] was 5.09 and the pIC50 [6] was 5.09. For the same compound, the Activity [7] was 30%.

`CCOC(=O)C1=C(N)Nc2[nH]nc(C)c2C1c1ccc(N(C)C)cc1` (stereo not given) showed a pIC50 [8] of 5.34, a pIC50 [9] of 5.37 and a pIC50 [10] of 5.38.

Work on `COc1ncc(-c2ccc3ncnc(Nc4cnn(CCO)c4)c3c2)cc1NS(=O)(=O)c1ccc(F)cc1F` yielded an inhibition in vivo at 20 mg/kg [11] of 54.1% and an inhibition in vivo at 40 mg/kg [12] of 84.1%.

In the case of `CCOc1ccc(Oc2ccc(C3=NN(C4=NC(=O)CS4)C(c4cc(O)c(O)c(Br)c4Br)C3)cc2)cc1` (stereo not given), the pIC50 [13] was 5.58, the pIC50 [14] was 5.58 and the pIC50 [15] was 5.58. For the same compound, the pIC50 [16] was 5.58, the pIC50 [17] was 5.58 and the pIC50 [18] was 5.58. For the same compound, the pIC50 [19] was 5.58, the pIC50 [20] was 5.58 and the pIC50 [21] was 5.58. It also gave a pIC50 [22] of 5.58, a pIC50 [23] of 5.58 and an IC50 at 48 h [24] of 27.1 µM. It also gave an IC50 at 72 h [25] of 28.3 µM, an inhibition in vivo at 25 mg/kg [26] of 58.8% and an inhibition in vivo at 50 mg/kg [27] of 67.2%.

`COc1cccc(C2=NN(C(N)=O)C(c3cn(C)c4ccc(Br)cc34)C2)c1` (stereo not given) gave an inhibition in vivo at 10 mg/kg [28] of 65% and an inhibition in vivo at 20 mg/kg [29] of 76%.

`Brc1ccc(-n2nc(-c3cccnc3)cc2-c2ccccc2)cc1` showed a pIC50 [30] of 5.92 and an Activity [31] of 40%.

With `COc1cc(OC)c(F)c(COc2cnc(Nc3cnn(CCO)c3)nc2)c1F` [ASP-5878] the bioavailability [32] was 76.1% and the bioavailability [33] was 94.2%.

`O=c1[nH]cc(F)c(=O)[nH]1` [FLUOROURACIL] gave an inhibition in vivo at 25 mg/kg [26] of 54.8%.

Work on `CCc1cc(C(N)=O)ccc1-n1nc(C(C)C)c2c(-n3cnc(-c4cnn(C)c4)c3)ccnc21` [TAS-116] yielded a pIC50 [34] of 6.42, a pIC50 [35] of 6.42 and a pIC50 [36] of 6.42. It also gave a pIC50 [37] of 7.46, a pIC50 [38] of 7.67 and an inhibition in vivo at 14 mg/kg [39] of 70%.
